Reference: patent US7388070B1, “Structure-based approach to design of inhibitors of protein-processivity factor interactions” (priority 1999, dated 2008)
pIC50: −log10 of the molar value.

What was measured:
[1] = CD spectroscopy, helicity from ellipticity at 222 nm; type: physicochemical; conditions: calculated from ellipticity values at 222 nm from CD measurements
Method: CD spectroscopy was performed in order to determine if the peptides with the least inhibitory activity were altered structurally. […] Therefore, the lack of inhibitory activity of these two mutants may be at least in part due to alterations in structure.
Lyophilized peptides were resuspended in 10 mM KF and adjusted to pH 8 with KOH. Spectra were recorded at the indicated peptide concentrations with an Aviv 62DS SpectroPolarimeter at 0° C. in a 0.1 cm pathlength cuvette. Wavelength scans were recorded at 1 nm intervals with a 5 second averaging time, and 5 to 10 scans were averaged. Peptide concentrations were determined by quantitative amino acid analysis. Unfolding curves were obtained by monitoring mean residue ellipticity at 222 nm as a function of the concentration of guanidine-HCl and temperature.

HSV Pol and UL42 = target: T1, HSV Pol and UL42 (Human herpesvirus 1, UniProt P10226); assay: Inhibition of UL42-mediated long-chain DNA synthesis (polymerase assay, poly(dA)/oligo(dT) primer/template); type: biochemical
T1 construct: made in house; host or cells: insect cells infected with recombinant baculoviruses
From the text: To perform structure-activity studies, “alanine scan” mutants of peptide E, in which each non-alanine residue was individually converted to an alanine, were synthesized and tested for their ability to inhibit long-chain DNA synthesis by Pol and UTL42. A poly(dA)/oligo(dT15) template/primer was employed. On this primer/template, Pol alone adds only one or two bases, but when UL42 is present, longer DNA products are formed. DNA products greater than 18 bases were quantified at varying peptide concentrations and expressed as a percentage of products formed by Pol/UL42 in the presence of vehicle control.
Reaction mixtures contained 50 mM Tris-Cl (pH 7.6), 100 mM (NH4)2SO4, 3 mM MgCl2, 0.1 mM EDTA, 1 mM dithiothreitol, 0.1 μg BSA, 4% glycerol, 0.25 μg of poly(dA)-oligo(dT) primer/template, […] [^32P]-TTP (5 Ci/mMol), 100 fmol of HSV Pol, 200 fmol of UL42 and varying concentrations of peptide inhibitors in a final volume of 25 μL. Reactions were carried out at 37° C. for 5 to 10 minutes. Reactions were stopped by placing them on ice and adding 5 μL of alkaline loading buffer (2 mM EDTA, 50 mM NaOH, 2.5% glycerol, 0.025% bromcresol green) and were then loaded onto a 4% alkaline agarose gel. Gels were dried overnight and used to expose film and phosphoresence screens. Because Pol alone added only 1-2 nucleotides to the 15 base primer, newly synthesized DNA larger than 18 bases was defined as long-chain and quantified using a Molecular Dynamics Phosphorimager.

T1 sequence (P10226 whole entry): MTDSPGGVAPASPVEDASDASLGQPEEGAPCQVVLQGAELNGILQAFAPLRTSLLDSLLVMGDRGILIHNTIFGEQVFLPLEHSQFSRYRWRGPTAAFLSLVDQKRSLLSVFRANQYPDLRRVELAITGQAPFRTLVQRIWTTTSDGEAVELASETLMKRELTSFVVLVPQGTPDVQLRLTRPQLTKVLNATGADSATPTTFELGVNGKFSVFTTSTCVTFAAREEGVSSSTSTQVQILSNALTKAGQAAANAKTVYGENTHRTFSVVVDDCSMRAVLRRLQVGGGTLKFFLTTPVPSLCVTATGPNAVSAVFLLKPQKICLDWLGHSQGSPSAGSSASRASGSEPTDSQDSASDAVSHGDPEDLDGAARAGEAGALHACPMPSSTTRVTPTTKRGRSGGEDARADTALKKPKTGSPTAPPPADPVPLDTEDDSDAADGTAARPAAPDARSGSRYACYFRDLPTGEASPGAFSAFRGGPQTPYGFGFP

Compound	% Helicity [1]	pIC50 (HSV Pol and UL42)
CSCC[C@H](NC(=O)[C@H](CCCNC(=N)N)NC(=O)[C@H](CCCNC(=N)N)NC(=O)[C@@H](NC(=O)[C@H](CCC(=O)O)NC(=O)[C@H](CCC(=O)O)NC(=O)[C@H](C)NC(=O)[C@@H](NC(=O)[C@H](C)NC(=O)CNC(=O)[C@H](C)NC(=O)CNC(=O)[C@@H](NC(=O)[C@H](C)NC(=O)CNC(=O)[C@H](Cc1ccccc1)NC(=O)CNC(=O)[C@H](C)NC(=O)[C@H](C)NC(=O)[C@H](CCCNC(=N)N)NC(=O)[C@H](CC(C)C)NC(=O)[C@H](CCCNC(=N)N)NC(=O)[C@H](C)NC(=O)[C@H](C)NC(=O)[C@@H](NC(=O)[C@H](CC(=O)O)NC(=O)[C@H](CC(=O)O)NC(C)=O)C(C)C)C(C)C)[C@@H](C)O)[C@@H](C)O)C(=O)N[C@@H](CC(C)C)C(=O)N[C@@H](Cc1c[nH]cn1)C(=O)N[C@@H](CCCNC(=N)N)C(=O)N[C@@H](C)C(=O)N[C@@H](Cc1ccccc1)C(=O)N[C@@H](CC(=O)O)C(=O)N[C@H](C(=O)N[C@@H](CC(C)C)C(=O)N[C@@H](C)C(=O)O)[C@@H](C)O [Peptide A]	20%	
Ac-ATAEETRRALHRAFDTLA-NH2 (N-terminus and C-terminus assumed) [Peptide M27A]		< 4.00
Ac-ATAEETRRMLHAAFDTLA-NH2 (N-terminus and C-terminus assumed) [Peptide R30A]	26%	< 4.00
CSCC[C@H](NC(=O)[C@H](CCCNC(=N)N)NC(=O)[C@H](CCCNC(=N)N)NC(=O)[C@@H](NC(=O)[C@H](CCC(=O)O)NC(=O)[C@H](C)NC(=O)[C@H](C)NC(=O)[C@@H](NC(=O)[C@H](C)N)[C@@H](C)O)[C@@H](C)O)C(=O)N[C@@H](CC(C)C)C(=O)N[C@@H](Cc1c[nH]cn1)C(=O)N[C@@H](CCCNC(=N)N)C(=O)N[C@@H](C)C(=O)N[C@@H](Cc1ccccc1)C(=O)N[C@@H](CC(=O)O)C(=O)N[C@H](C(=O)N[C@@H](CC(C)C)C(=O)N[C@@H](C)C(=O)O)[C@@H](C)O [Peptide E22A]		< 4.00
Ac-ATAEETRRMLARAFDTLA-NH2 (N-terminus and C-terminus assumed) [Peptide H29A]	25%	< 4.00
CSCC[C@H](NC(=O)[C@H](CCCNC(=N)N)NC(=O)[C@H](CCCNC(=N)N)NC(=O)[C@@H](NC(=O)[C@H](CCC(=O)O)NC(=O)[C@H](CCC(=O)O)NC(=O)[C@H](C)NC(=O)[C@@H](NC(=O)[C@H](C)NC(C)=O)[C@@H](C)O)[C@@H](C)O)C(=O)N[C@@H](CC(C)C)C(=O)N[C@@H](Cc1c[nH]cn1)C(=O)N[C@@H](CCCNC(=N)N)C(=O)N[C@@H](C)C(=O)N[C@@H](C)C(=O)N[C@@H](CC(=O)O)C(=O)N[C@H](C(=O)N[C@@H](CC(C)C)C(=O)N[C@@H](C)C(N)=O)[C@@H](C)O [Peptide F32A]	28%	< 4.00
CSCC[C@H](NC(=O)[C@H](CCCNC(=N)N)NC(=O)[C@H](CCCNC(=N)N)NC(=O)[C@@H](NC(=O)[C@H](CCC(=O)O)NC(=O)[C@H](CCC(=O)O)NC(=O)[C@H](C)NC(=O)[C@H](C)NC(=O)[C@H](C)NC(C)=O)[C@@H](C)O)C(=O)N[C@@H](CC(C)C)C(=O)N[C@@H](Cc1c[nH]cn1)C(=O)N[C@@H](CCCNC(=N)N)C(=O)N[C@@H](C)C(=O)N[C@@H](Cc1ccccc1)C(=O)N[C@@H](CC(=O)O)C(=O)N[C@H](C(=O)N[C@@H](CC(C)C)C(=O)N[C@@H](C)C(N)=O)[C@@H](C)O [Peptide T20A]	16%	< 4.00
